pIC50: −log10 of the molar value. Where two headings read alike, the source gives them in different places.
Columns and labels:
[1] = target: T1, glycine binding pocket of the NMDA receptor (Rattus norvegicus, UniProt P35439); experiment: [3H]MDL-105,519 displacement studies (rat cortical membranes)
T1 construct: For isolation of the cell membranes, the cortices are homogenized; from tissue; host or cells: rat cerebral cortex membranes (male Sprague-Dawley)
Description: Anaesthetised male Sprague-Dawley rats (200-250 g, Janvier, Le Genest-Isle, France) are decapitated and their brains removed rapidly. […] For isolation of the cell membranes, the cortices are homogenized in 20 volumes of ice-cold 0.32 M sucrose (Sigma-Aldrich, Taufkirchen, Germany) using a glass-Teflon homogenizer. The homogenate is centrifuged at 1000×g for 10 minutes, the pellet is discarded and the supernatant centrifuged at 20,000×g for 20 minutes. The resulting pellet is re-suspended in 20 volumes of distilled water and centrifuged for 20 minutes at 8000×g. The supernatant and the buffy coat are then centrifuged three times (48,000×g for 20 minutes) in the presence of 50 mM Tris-HCl, pH 8.0 (assay buffer). All centrifugation steps are carried out at 4° C. After resuspension in 5 volumes of 50 mM Tris-HCl, pH 7.5, the membrane suspension is frozen rapidly at −80° C. On the day of assay, the membranes are thawed and washed four times by resuspension in 50 mM Tris-HCl, pH 7.5, and centrifugation at 48,000×g for 20 minutes. The final pellet is suspended in assay buffer. […] The final protein concentration used for our studies is 400 μg/ml.
A robotic system designed for binding assays (Tecan Deutschland GmbH, Crailsheim, Germany) is loaded with the membrane solution, solutions for bound control (buffer/DMSO 20%), unlabeled glycine (1 mM) for evaluation of non-specific binding, all compounds to be tested (at 20-fold concentrations), radioligand and respective 96-well plates.
The protein/receptor concentration is held constant whereas the amount of specific bound radioligand is determined using increasing concentrations of ligand.
Firstly, the assay plates are loaded with membrane solution and are shaken at 4° C. The mother plates are then prepared by pipetting the compounds into assay buffer/20% DMSO to obtain the desired final concentrations (dose response curve with five different concentrations, e.g. 10, 3, 1, 0.3, and 0.1 μM). After transferring radioligand into the assay plates, the compounds are added (including the bound and the non-specific binding control). The final DMSO concentration is 1%. The assay plates are incubated and shaken at 4° C. for 1 h, before the mixture is exhausted as rapidly as possible via a vacuum manifold using the Multiscreen HTS glass fibre (type B) filter plates (Millipore, Schwalbach, Germany) under a constant vacuum of 450 mbar. The membranes are washed four times with cold assay buffer ([…]). 50 μL of Ultima Gold scintillation cocktail (PerkinElmer, Rodgau-Jügesheim, Germany) is added to the wet filter plates and incubated at room temperature overnight before counting the disintegration per minutes using a liquid scintillation counter (MicroBeta, PerkinElmer, Rodgau-Jügesheim, Germany).
The residual radioactivity after displacement of the test compound (n=5) is then corrected with respect to the set controls.

[2] = target: NMDA receptor glycine B site (Rattus norvegicus, UniProt P35439); experiment: Calcium FLIPR studies, rat cortical neurons (NMDA/D-Serine induced intracellular calcium); type: cell-based; parameters: Primary neurons are prepared from cortices of embryonal rats at day 17 of pregnancy; endogenous in cells; host or cells: primary rat cortical neurons (E17, 11-13 DIV)
Description: Antagonistic potencies of the test compounds are functionally evaluated using electrophysiological whole cell patch-clamp recordings and/or fluorometric intracellular Ca^2+-imaging (FLIPR) screens.
Sprague-Dawley rat embryos (E 17) are decapitated and neocortices are dissected, trypsinized and carefully triturated. The cell suspension is plated on poly-D-lysine pre-coated 96-well Plates (Greiner, Frickenhausen, Germany) at a cell density of 55.000 cells/well. The neurons are cultivated in Neurobasal media containing B27-Supplement and […] L-Glutamine (Biochrom) at 37° C. in a humidified atmosphere of 5% CO2/95% air. Medium is exchanged completely at day 4 and to 50% on day 7. At the time of experiments neurons are 11-13 days in vitro.
The increase of intracellular calcium after stimulation with 30 μM NMDA and 1 μM D-Serine is measured using the fluorometric imaging plate reader (FLIPR) and the Calcium-4-Kit (both Molecular Devices, Ismaning, Germany). Prior to addition of agonist or antagonist (5 different concentrations, n=5) the medium is aspirated and cells are washed once before loading with 150 μL of loading buffer (1 h at room temperature), consisting of Ca-4 sensitive dye reconstituted in extracellular bath solution, pH 7.3. Subsequently, plates are transferred to FLIPR to detect increases in intracellular calcium after the addition of agonist, measured as relative fluorescence units (RFU). Antagonists are pre-incubated with the cells for 10 min at room temperature before the addition of the agonist and co-agonist.
The fluorescence signal increase after addition of agonist reflects the increase of intracellular calcium. Inconsistencies in the amount of cells per well are normalised by using the spatial uniformity correction of the FLIPR software (Screenworks, Molecular Devices). The mean of replicated temporal data (n=5) is calculated and used for graphical representation. For the evaluation of the antagonistic potency, the calcium changes in response to different concentrations of antagonist are determined using an area under the curve (AUC) calculation. All responses (RFU-values) are determined as percentage of control (=maximum response at 30 μM NMDA and 1 μM D-Serine). IC50 values are calculated according the four parameter logistic equation using GraFit (Erithacus Software).

[3] = displacement of 2 nM [3H]-MDL-105,519, rat cortical membranes, read-out: NMDA-MDL 105519-r-CTX - IC50
[4] = rat cortical neurons, stimulation with 30 μM NMDA and 1 μM D-Serine, antagonist pre-incubated 10 min, read-out: NMDA-FLIPR-rCTX-NAM - IC50

Row | Compound | pIC50 [1, 3] | pIC50 [2, 4] | pIC50 [1] | pIC50 [2]
1 | O=C(O)COc1cccc(NC(=O)COc2cc(C(=O)O)cc3cc(Cl)cc(Cl)c23)c1 [Example 2, 4-[(3-Carboxymethoxyphenylcarbamoyl)-methoxy]-5,7-dichloronaphthalene-2-carboxylic acid] | 6.38 | 5.50 | – | –
2 | CC(Oc1cc(C(=O)O)cc2cc(Cl)cc(Cl)c12)C(=O)Nc1ccc(CO)cc1 (stereo not drawn) [Example 16, 5,7-Dichloro-4-[1-(4-hydroxymethylphenylcarbamoyl)-ethoxy]-naphthalene-2-carboxylic acid] | 6.16 | 5.33 | – | –
3 | CC(Oc1cc(C(=O)O)cc2cc(Cl)cc(Cl)c12)C(=O)Nc1ccccc1CO (stereo not drawn) [Example 17, 5,7-Dichloro-4-[1-(2-hydroxymethylphenylcarbamoyl)-ethoxy]-naphthalene-2-carboxylic acid] | – | – | 5.92 | 4.90
4 | O=C(COc1cc(C(=O)O)cc2cc(Cl)cc(Cl)c12)NCc1cccc(CO)c1 [Example 22, 5,7-Dichloro-4-[(3-hydroxymethylbenzylcarbamoyl)-methoxy]-naphthalene-2-carboxylic acid] | 6.63 | 5.27 | – | –
5 | CC(Oc1cc(C(=O)O)cc2cc(Cl)cc(Cl)c12)C(=O)Nc1cccc(CO)c1 (stereo not drawn) [Example 25, 5,7-Dichloro-4-[1-(3-hydroxymethylphenylcarbamoyl)-ethoxy]-naphthalene-2-carboxylic acid] | 5.99 | 5.14 | – | –
6 | O=C(COc1cc(C(=O)O)cc2cc(Cl)cc(Cl)c12)NC(C(=O)O)c1ccccc1 (stereo not drawn) [Example 27, 4-{[(Carboxyphenylmethyl)-carbamoyl]-methoxy}-5,7-dichloronaphthalene-2-carboxylic acid] | 6.10 | 5.46 | – | –
7 | CN(C(=O)COc1cc(C(=O)O)cc2cc(Cl)cc(Cl)c12)c1cccc(C(=O)O)c1 [Example 31, 4-{[(3-Carboxyphenyl)-methylcarbamoyl]-methoxy}-5,7-dichloronaphthalene-2-carboxylic acid] | 5.96 | 5.32 | – | –
8 | O=C(O)c1cc(OC(C(=O)O)c2ccccc2)c2c(Cl)cc(Cl)cc2c1 (stereo not drawn) [Example 32, 4-(Carboxyphenylmethoxy)-5,7-dichloronaphthalene-2-carboxylic acid] | 5.82 | 5.19 | – | –
9 | Cc1ccc(S(=O)(=O)NC(=O)COc2cc(C(=O)O)cc3cc(Cl)cc(Cl)c23)cc1 [Example 36, 5,7-Dichloro-4-[2-oxo-2-(toluene-4-sulfonylamino)-ethoxy]-naphthalene-2-carboxylic acid] | 5.82 | 5.26 | – | –
10 | O=C(O)c1cc(OCC(=O)N2Cc3ccccc3CC2C(=O)O)c2c(Cl)cc(Cl)cc2c1 (stereo not drawn) [Example 38, 2-[2-(3-Carboxy-6,8-dichloronaphthalen-1-yloxy)-acetyl]-1,2,3,4-tetrahydroisoquinoline-3-carboxylic acid] | 5.87 | 4.98 | – | –
11 | O=C(O)Cc1ccc(NC(=O)COc2cc(C(=O)O)cc3cc(Cl)cc(Cl)c23)cn1 [Example 46, 4-[(6-Carboxymethyl-pyridin-3-ylcarbamoyl)-methoxy]-5,7-dichloro-naphthalene-2-carboxylic acid] | 5.91 | 5.03 | – | –
12 | O=C(O)c1cc(OCC(=O)N2CCc3ccccc3C2)c2c(Cl)cc(Cl)cc2c1 [Example 52, 5,7-Dichloro-4-[2-(3,4-dihydro-1H-isoquinolin-2-yl)-2-oxo-ethoxy]-naphthalene-2-carboxylic acid] | 5.64 | 5.13 | – | –
13 | O=C(COc1cc(C(=O)O)cc2cc(Cl)cc(Cl)c12)Nc1nnn[nH]1 [Example 64, 5,7-Dichloro-4-[(1H-tetrazol-5-ylcarbamoyl)-methoxy]-naphthalene-2-carboxylic acid] | 5.90 | 5.03 | – | –
14 | O=C(O)c1cc(OC2CCN(c3ccccc3)C2=O)c2c(Cl)cc(Cl)cc2c1 (stereo not drawn) [Example 65, 5,7-Dichloro-4-(2-oxo-1-phenyl-pyrrolidin-3-yloxy)-naphthalene-2-carboxylic acid] | 5.86 | 5.12 | – | –
15 | COCC(Oc1cc(C(=O)O)cc2cc(Cl)cc(Cl)c12)C(=O)Nc1ccccc1 (stereo not drawn) [Example 67, 5,7-Dichloro-4-(2-methoxy-1-phenylcarbamoyl-ethoxy)-naphthalene-2-carboxylic acid] | 5.86 | 5.19 | – | –
16 | COc1ccccc1N1CCC(Oc2cc(C(=O)O)cc3cc(Cl)cc(Cl)c23)C1=O (stereo not drawn) [Example 75, 5,7-Dichloro-4-[1-(2-methoxy-phenyl)-2-oxo-pyrrolidin-3-yloxy]-naphthalene-2-carboxylic acid] | 5.90 | 5.30 | – | –
17 | NCc1ccc(OCC(=O)O)c(NC(=O)COc2cc(C(=O)O)cc3cc(Cl)cc(Cl)c23)c1 [Example 79, 4-[(5-Aminomethyl-2-carboxymethoxy-phenylcarbamoyl)-methoxy]-5,7-dichloro-naphthalene-2-carboxylic acid] | 7.05 | 5.78 | – | –
18 | CC(C)(Oc1ccccc1NC(=O)COc1cc(C(=O)O)cc2cc(Cl)cc(Cl)c12)C(=O)O [Example 81, 4-{[2-(1-Carboxy-1-methyl-ethoxy)-phenylcarbamoyl]-methoxy}-5,7-dichloro-naphthalene-2-carboxylic acid] | 5.92 | 4.95 | – | –
19 | O=C(COc1cc(C(=O)O)cc2cc(Cl)cc(Cl)c12)Nc1ccc(Cc2nnn[nH]2)cc1 [Example 86, 5,7-Dichloro-4-{[4-(1H-tetrazol-5-ylmethyl)-phenylcarbamoyl]-methoxy}-naphthalene-2-carboxylic acid] | 5.74 | 5.24 | – | –
20 | O=C(COc1cc(C(=O)O)cc2cc(Cl)cc(Cl)c12)Nc1ccc(OCc2nnn[nH]2)cc1 [Example 88, 5,7-Dichloro-4-{[4-(1H-tetrazol-5-ylmethoxy)-phenylcarbamoyl]-methoxy}-naphthalene-2-carboxylic acid] | 5.81 | 5.42 | – | –
21 | O=C(COc1cc(C(=O)O)cc2cc(Cl)cc(Cl)c12)Nc1cccnc1 [Example 127, 5,7-Dichloro-4-(pyridin-3-ylcarbamoylmethoxy)-naphthalene-2-carboxylic acid] | 6.30 | – | – | –
22 | O=C(COc1cc(C(=O)O)cc2cc(Cl)cc(Cl)c12)Nc1ccccn1 [Example 129, 5,7-Dichloro-4-(pyridin-2-ylcarbamoylmethoxy)-naphthalene-2-carboxylic acid] | 6.01 | – | – | –

From patent US20120220577A1, “GLYCINE B ANTAGONISTS” (Merz Pharma GmbH & Co KgaA, priority 2009, published 2012)
